Reference: ChEMBL document CHEMBL1201862, “PubChem BioAssay data set” (2004)
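Values below derive from 48-hour exposures of cells grown in 96-well plates, with endpoints linearly interpolated between the two concentrations bracketing the appropriate inhibition level. GI50 marks 50% less growth.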 Calls of active or inactive are those of the source. No stated cut-off is given here; in the data, active = GI50 up to about 1.1 µM and inactive = higher.

Columns and labels:
Experiment in all cases: NCI anticancer screen, dose series, 48 h
DLD-1 = system: DLD-1
DMS-114 = system: DMS-114
DMS-273 = system: DMS-273
KM-20L2 = system: KM-20L2
LXFL 529 = system: LXFL 529
M19-MEL = system: M19-MEL
RXF 631 = system: RXF 631
SNB-78 = system: SNB-78
XF498 = system: XF498

Measured: GI50

O=C(CCN1CCCCC1)N1CCc2c([nH]c3ccccc23)C1c1cccnc1 (configuration not stated)
inactive: DLD-1 48.4 µM | DMS-114 27.9 µM | DMS-273 39.8 µM | KM-20L2 30.1 µM | LXFL 529 20.9 µM | M19-MEL 21.2 µM | RXF 631 31 µM | SNB-78 > 86.7 µM | XF498 21.2 µM

CC1c2[nH]c3ccccc3c2CCN1O (configuration not stated)
inactive: DLD-1 > 100 µM | DMS-114 > 100 µM | DMS-273 > 100 µM | KM-20L2 > 100 µM | LXFL 529 > 100 µM | M19-MEL > 100 µM | RXF 631 > 100 µM | SNB-78 > 100 µM

NS(=O)(=O)c1ccc(NC(=O)Cc2nc3ccccc3s2)cc1
inactive: DLD-1 15.5 µM | DMS-114 15.1 µM | DMS-273 18.7 µM | KM-20L2 18.7 µM | LXFL 529 16.8 µM | M19-MEL 14.6 µM | RXF 631 16.4 µM | SNB-78 19.5 µM | XF498 16.2 µM

Cc1cn2c(=O)c3ncn(C4OC(CO)C(O)C4O)c3n(C)c2n1 (configuration not stated)
inactive: DLD-1 > 100 µM | DMS-114 > 100 µM | DMS-273 > 100 µM | KM-20L2 > 100 µM | LXFL 529 > 100 µM | M19-MEL > 100 µM | RXF 631 > 100 µM | SNB-78 > 100 µM

CCN(CC)[C@@H]1c2cc3c(cc2C(c2cc(OC)c(O)c(OC)c2)C2C(=O)CO[C@@H]21)OCO3 (some centres not stated)
inactive: DLD-1 > 100 µM | DMS-114 > 100 µM | DMS-273 > 100 µM | KM-20L2 > 100 µM | LXFL 529 > 100 µM | M19-MEL > 100 µM | RXF 631 > 100 µM | XF498 > 100 µM
